Assay [1] deals with recombinant human LDHA (Homo sapiens, UniProt P00338). The assay can be described thus: LDHA enzymatic assay with increasing levels of NADH. Format: biochemical. Conditions: NADH 120 μM; read-out: LDHA IC50 at high NADH. Here is the method:
LDHA enzymatic assay with increasing levels of NADH The following reaction was assembled in clear-bottom 96 well plate: 50 mM phosphate buffer pH 7.0, 50 mM NaCl, 0.25 mM CHAPS, 200 µM NaPyruvate, 250 pM recombinant human LDHA, and the indicated amounts of NADH and Compound 2. Absorbance change due to NADH conversion to NAD^+ was read on SpectraMax M2 (Molecular Devices, Sunnyvale, CA) at 340 nm every 40 sec for 6 min.

The target in assay [2] is Glycogen synthase kinase 3b (Homo sapiens, UniProt P49841). The assay can be described thus: Glycogen synthase kinase 3b ANT. Format: biochemical. Conditions: antagonist; read-out: pIC50 Glycogen synthase kinase 3b ANT (converted). The text has this: ANT = antagonist (pIC50), AG = agonist (pEC50). pIC50 and pEC50 are the negative logarithms10 of IC50 and EC50, respectively. Click here for file
Chain of Glycogen synthase kinase 3b (P49841 whole entry): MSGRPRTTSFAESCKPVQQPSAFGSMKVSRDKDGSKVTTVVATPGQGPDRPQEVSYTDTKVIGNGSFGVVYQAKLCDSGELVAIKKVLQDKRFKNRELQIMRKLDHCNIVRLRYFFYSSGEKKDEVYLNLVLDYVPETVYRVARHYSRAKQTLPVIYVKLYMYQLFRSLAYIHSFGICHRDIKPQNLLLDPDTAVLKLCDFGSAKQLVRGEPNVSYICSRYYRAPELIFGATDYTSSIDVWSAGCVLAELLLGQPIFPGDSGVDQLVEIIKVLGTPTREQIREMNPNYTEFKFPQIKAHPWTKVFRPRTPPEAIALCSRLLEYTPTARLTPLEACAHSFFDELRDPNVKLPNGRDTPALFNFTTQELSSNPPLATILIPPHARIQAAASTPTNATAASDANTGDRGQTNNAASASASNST

For assay [3], the system named is MDA-MB-453 cells. The assay can be described thus: ECAR after rotenone/antimycin, MDA-MB-453 (Seahorse XF96). Particulars: Homo sapiens; MDA-MB-453, after rotenone/antimycin. Format: cell-based. The method, then: For XF96 experiments breast cancer cells were seeded in DMEM without bicarbonate at 16,000/well in XF96 V3 PET plates (Seahorse Biosciences) coated with CellTak (BD Biosciences, San Jose, CA, USA). […] HepG2 cells were seeded at 16K/well in XF96 V3 PET plates and left overnight for attachment. The medium was exchanged with DMEM without bicarbonate prior to readings on the XF96 Analyzer (Seahorse Biosciences).

In assay [4] the test system is Snu398 cells. Nature of the assay: Pyruvate kinase (PK) activity, Snu398. Format: cell-based. Conditions: Homo sapiens, SNU-398; Snu398, 6 h. Here is the method:
One and a half million cells per well were plated in 6-well tissue culture plates in R10 medium and allowed to attach overnight. The following morning, cells were washed and medium replaced with 2 mL/well of low-glucose medium. DMSO control or the indicated doses of LDHA inhibitor dissolved in DMSO were added to the wells and cells were incubated at 37°C for 6 h. Following the incubation, cells were washed, scraped into 200 μl of distilled de-ionized water and homogenized on ice using OMNI THq homogenizer (Omni International, Kennesaw, GA, USA). Homogenates were cleared by centrifugation and protein concentration measured by bicinchoninic acid (BCA) assay (Thermo Fisher Scientific, Waltham, MA, USA). PK activity was determined using PK Activity kit (BioVision Research Products) per manufacturer’s instructions and normalized to protein concentration. For detection of PKM2 oligomerization, the same protein samples were separated by non-denaturing gel electrophoresis using the NativePAGE™ gel system (Life Technologies), transferred onto polyvinylidene difluoride (PVDF) membranes and subjected to western immunoblotting with anti-PKM2 antibody.

The subject of assay [5] is HepG2 cells. The assay can be described thus: Cell proliferation and survival, HepG2 (trypan blue, Vi-Cell). Format: cell-based, human. Particulars: 4 to 8 days. The method, then:
Sixty thousand Snu398 cells per well were plated in 6-well tissue culture plates in RPMI-1640 medium supplemented with 2.5% charcoal-stripped FBS (Life Technologies). Cells were allowed to attach overnight and then DMSO control or the indicated doses of LDHA inhibitor dissolved in DMSO were added directly to the wells. After 4 to 8 days of incubation in the indicated oxygen conditions, adherent cells were trypsinized, counted, and had their viability assessed by the trypan-blue exclusion method using the Vi-Cell XR Cell Viability Analyzer (Beckman Coulter, Brea, CA, USA). The same procedure was carried out for HepG2 cells, except non-charcoal-stripped FBS was used. For PARP cleavage analysis, both floating and adherent cells were collected after 24 h and the whole-cell extracts were prepared in radioimmunoprecipitation assay (RIPA) buffer (Sigma-Aldrich) supplemented with protease and phosphatase inhibitor cocktails (Sigma-Aldrich). Solubilized proteins were separated by SDS-PAGE, transferred onto nitrocellulose membrane, and detected with each specific antibody.

The test system of assay [6] is MDA-MB-453 cells. The assay can be described thus: Lactate production in normoxia/hypoxia, MDA-MB-453 (YSI analyzer). Particulars: Homo sapiens, MDA-MB-453, 2 h, read-out: lactate production EC50 in hypoxia.

With `COc1ncc(-c2ccc3c(Nc4cc(C(=O)O)cc(C5CCCC5)c4)c(S(=O)(=O)NC4CC4)cnc3c2)c(OC)n1` [Compound 2], the results for the IC50 in assay [1] and in assay [2] were 0.067 µM and 31.6 µM, respectively.
`COc1ncc(-c2ccc3c(Nc4cc(Oc5cc(F)cc(F)c5)cc(C(=O)O)c4)c(S(=O)(=O)NC4CC4)cnc3c2)c(OC)n1` [Compound 1]: the concentration for a half-maximal effect (EC50) in assay [3] amounted to 10 µM; in assay [4], 0.6 µM; in assay [6], 10 µM. For the same compound, the HepG2 survival entry in assay [5] was “did not change HepG2 survival except at the highest dose”.

In general, EC50 refers to the concentration at which the effect is half-maximal.

The record behind these values is article PMC4178217, “Quinoline 3-sulfonamides inhibit lactate dehydrogenase A and reverse aerobic glycolysis in cancer cells” (Cancer & Metabolism, 2013).
